Data: ChEMBL document CHEMBL3885881, “DrugMatrix”

Organism: Rattus norvegicus
Experiment: DrugMatrix - Regimen: Daily Repeat
Format: toxicity, organism-based, Sprague-Dawley
Parameters: regimen Daily Repeat, gender Male, age 6-8 weeks
Settings: in vivo, po, route oral GAVAGE, vehicle .5 % CMC; for ABSOLUTE BASOPHIL / ABSOLUTE EOSINOPHIL / ABSOLUTE LYMPHOCYTE / ABSOLUTE MONOCYTE / ABSOLUTE SEGMENTED NEUTROPHIL / BASOPHIL / EOSINOPHIL / ERYTHROCYTE COUNT / HEMATOCRIT / HEMOGLOBIN / LEUKOCYTE COUNT / LYMPHOCYTE / MEAN CORPUSCULAR HEMOGLOBIN / MEAN CORPUSCULAR HEMOGLOBIN CONCENTRATION / MEAN CORPUSCULAR VOLUME / MONOCYTE / NEUTROPHIL / NUCLEATED RED BLOOD CELLS / PLATELET COUNT: tissue Blood; for ALANINE AMINOTRANSFERASE / ALBUMIN / ALKALINE PHOSPHATASE / ASPARTATE AMINOTRANSFERASE / BLOOD UREA NITROGEN / CARBON DIOXIDE / CHLORIDE / CHOLESTEROL / CREATINE PHOSPHOKINASE / CREATININE / GLUCOSE / LACTATE DEHYDROGENASE / LIPASE / PHOSPHORUS / POTASSIUM / SODIUM / TOTAL BILIRUBIN / TOTAL PROTEIN / URIC ACID: tissue Plasma
[1] = 0 mg/kg, 72 h, dose level Control, time 3 day
[2] = 0 mg/kg, 120 h, dose level Control, time 5 day
[3] = 40 mg/kg, 72 h, dose level Low, time 3 day

## C[C@@](Cc1ccc(O)c(O)c1)(NN)C(=O)O.O [CARBIDOPA]
[1]
  ABSOLUTE BASOPHIL: 0 CELLS/uL
  ABSOLUTE EOSINOPHIL: 222.83 CELLS/uL
  ABSOLUTE LYMPHOCYTE: 14453 CELLS/uL
  ABSOLUTE MONOCYTE: 0 CELLS/uL
  ABSOLUTE SEGMENTED NEUTROPHIL: 1490.83 CELLS/uL
  BASOPHIL: 0%
  EOSINOPHIL: 1.33%
  ERYTHROCYTE COUNT: 5.76 x10E6/uL
  HEMATOCRIT: 36.52%
  HEMOGLOBIN: 13.45 G/DL
  LEUKOCYTE COUNT: 16.17 x10E3/uL
  LYMPHOCYTE: 89.33%
  MEAN CORPUSCULAR HEMOGLOBIN: 23.37 pg
  MEAN CORPUSCULAR HEMOGLOBIN CONCENTRATION: 36.85 G/DL
  MEAN CORPUSCULAR VOLUME: 63.47 fL
  MONOCYTE: 0%
  NEUTROPHIL: 9.33%
  NUCLEATED RED BLOOD CELLS: 0 /100WBC
  PLATELET COUNT: 1239.5 x10E3/uL
  ALANINE AMINOTRANSFERASE: 43.83 u/L
  ALBUMIN: 4.27 G/DL
  ALKALINE PHOSPHATASE: 398.83 u/L
  ASPARTATE AMINOTRANSFERASE: 81.17 u/L
  BLOOD UREA NITROGEN: 17.67 mg/dL
  CARBON DIOXIDE: 27.5 mmol/L
  CHLORIDE: 99.17 MEQ/L
  CHOLESTEROL: 74 mg/dL
  CREATINE PHOSPHOKINASE: 331.5 u/L
  CREATININE: 0.2 mg/dL
  GLUCOSE: 171.33 mg/dL
  LACTATE DEHYDROGENASE: 241.67 u/L
  LIPASE: 9.5 u/L
  PHOSPHORUS: 12.25 mg/dL
  POTASSIUM: 6.33 MEQ/L
  SODIUM: 141.28 MEQ/L
  TOTAL BILIRUBIN: 0.15 mg/dL
  TOTAL PROTEIN: 5.98 G/DL
  URIC ACID: 1.63 mg/dL
[2]
  ABSOLUTE BASOPHIL: 0 CELLS/uL
  ABSOLUTE EOSINOPHIL: 148.67 CELLS/uL
  ABSOLUTE LYMPHOCYTE: 16020.5 CELLS/uL
  ABSOLUTE MONOCYTE: 29.17 CELLS/uL
  ABSOLUTE SEGMENTED NEUTROPHIL: 1468.33 CELLS/uL
  BASOPHIL: 0%
  EOSINOPHIL: 1%
  ERYTHROCYTE COUNT: 5.78 x10E6/uL
  HEMATOCRIT: 35.77%
  HEMOGLOBIN: 13.4 G/DL
  LEUKOCYTE COUNT: 17.67 x10E3/uL
  LYMPHOCYTE: 90.5%
  MEAN CORPUSCULAR HEMOGLOBIN: 23.22 pg
  MEAN CORPUSCULAR HEMOGLOBIN CONCENTRATION: 37.47 G/DL
  MEAN CORPUSCULAR VOLUME: 61.92 fL
  MONOCYTE: 0.17%
  NEUTROPHIL: 8.33%
  NUCLEATED RED BLOOD CELLS: 0.17 /100WBC
  PLATELET COUNT: 1255.5 x10E3/uL
  ALANINE AMINOTRANSFERASE: 46.5 u/L
  ALBUMIN: 4.38 G/DL
  ALKALINE PHOSPHATASE: 336 u/L
  ASPARTATE AMINOTRANSFERASE: 76.5 u/L
  BLOOD UREA NITROGEN: 20 mg/dL
  CARBON DIOXIDE: 27.5 mmol/L
  CHLORIDE: 101 MEQ/L
  CHOLESTEROL: 71.33 mg/dL
  CREATINE PHOSPHOKINASE: 231.83 u/L
  CREATININE: 0.37 mg/dL
  GLUCOSE: 168.83 mg/dL
  LACTATE DEHYDROGENASE: 174 u/L
  LIPASE: 8.67 u/L
  PHOSPHORUS: 11.48 mg/dL
  POTASSIUM: 6.82 MEQ/L
  SODIUM: 143.8 MEQ/L
  TOTAL BILIRUBIN: 0.2 mg/dL
  TOTAL PROTEIN: 5.98 G/DL
  URIC ACID: 1.83 mg/dL
[3]
  ABSOLUTE BASOPHIL: 0 CELLS/uL
  ABSOLUTE EOSINOPHIL: 143.67 CELLS/uL
  ABSOLUTE LYMPHOCYTE: 13232.67 CELLS/uL
  ABSOLUTE MONOCYTE: 0 CELLS/uL
  ABSOLUTE SEGMENTED NEUTROPHIL: 1090.33 CELLS/uL
  BASOPHIL: 0%
  EOSINOPHIL: 1%
  ERYTHROCYTE COUNT: 5.57 x10E6/uL
  HEMATOCRIT: 35.7%
  HEMOGLOBIN: 13.3 G/DL
  LEUKOCYTE COUNT: 14.47 x10E3/uL
  LYMPHOCYTE: 91.67%
  MEAN CORPUSCULAR HEMOGLOBIN: 23.87 pg
  MEAN CORPUSCULAR HEMOGLOBIN CONCENTRATION: 37.27 G/DL
  MEAN CORPUSCULAR VOLUME: 64.03 fL
  MONOCYTE: 0%
  NEUTROPHIL: 7.33%
  NUCLEATED RED BLOOD CELLS: 0 /100WBC
  PLATELET COUNT: 1331.33 x10E3/uL
  ALANINE AMINOTRANSFERASE: 40.33 u/L
  ALBUMIN: 4.27 G/DL
  ALKALINE PHOSPHATASE: 388.33 u/L
  ASPARTATE AMINOTRANSFERASE: 77 u/L
  BLOOD UREA NITROGEN: 14 mg/dL
  CARBON DIOXIDE: 29 mmol/L
  CHLORIDE: 100.67 MEQ/L
  CHOLESTEROL: 72.33 mg/dL
  CREATINE PHOSPHOKINASE: 210.67 u/L
  CREATININE: 0.21 mg/dL
  GLUCOSE: 156 mg/dL
  LACTATE DEHYDROGENASE: 151.33 u/L
  LIPASE: 8.33 u/L
  PHOSPHORUS: 12.9 mg/dL
  POTASSIUM: 6.71 MEQ/L
  SODIUM: 144.3 MEQ/L
  TOTAL BILIRUBIN: 0.23 mg/dL
  TOTAL PROTEIN: 5.9 G/DL
  URIC ACID: 1.83 mg/dL
